The target of one experiment is Protein Wnt-3a (Mus musculus, UniProt P27467). Kind of experiment: antagonism of Wnt3a pathway luciferase reporter – Wnt-LIGHT cells, luminescence, selectivity assay for Gli-SUFU antagonist project, dose response (AID 651570).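 Further: Wnt-LIGHT reporter cells stimulated with conditioned medium from Wnt3a-producing cells.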 In kind it is functional. To be noted: read-out: IC50_Mean. (In general: A reporter such as luciferase makes a cellular process visible.)
Experiment [1] is described as follows: blockers of CRF-binding protein–CRF-R2 complex – cell-based, uHTS hits, 384-well, dose response (AID 651639). To be noted: read-out: IC50_Mean. The format is functional, Homo sapiens.
Experiment [2] has as its target T1, Corticotropin-releasing factor receptor 2/Corticotropin-releasing factor-binding protein (Homo sapiens, UniProt P24387+Q13324).
T1 sequence (Q13324 whole entry): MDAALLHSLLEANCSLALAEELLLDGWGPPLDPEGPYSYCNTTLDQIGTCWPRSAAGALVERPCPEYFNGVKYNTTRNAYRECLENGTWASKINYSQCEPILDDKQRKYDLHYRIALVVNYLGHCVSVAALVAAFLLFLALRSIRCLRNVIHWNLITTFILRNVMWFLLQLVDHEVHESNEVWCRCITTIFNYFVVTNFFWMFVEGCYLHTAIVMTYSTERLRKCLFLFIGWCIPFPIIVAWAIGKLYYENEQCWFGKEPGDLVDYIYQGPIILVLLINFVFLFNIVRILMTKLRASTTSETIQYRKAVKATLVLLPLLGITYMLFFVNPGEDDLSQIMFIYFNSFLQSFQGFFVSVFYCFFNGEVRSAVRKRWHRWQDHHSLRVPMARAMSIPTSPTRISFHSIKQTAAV
T1 sequence (P24387 whole entry): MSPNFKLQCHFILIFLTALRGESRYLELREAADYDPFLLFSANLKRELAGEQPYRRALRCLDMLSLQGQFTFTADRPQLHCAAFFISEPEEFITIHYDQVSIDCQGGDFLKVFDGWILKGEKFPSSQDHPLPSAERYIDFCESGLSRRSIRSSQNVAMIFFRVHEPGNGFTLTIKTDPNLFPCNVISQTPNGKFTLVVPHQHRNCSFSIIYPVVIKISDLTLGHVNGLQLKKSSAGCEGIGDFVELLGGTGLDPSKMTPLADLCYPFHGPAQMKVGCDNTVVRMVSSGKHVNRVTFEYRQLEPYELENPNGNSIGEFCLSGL
Briefly: activators of CRF receptor 2 with binding protein – uHTS hits, confirmation (AID 602473). In kind it is functional. The note with it: read-out: EC50_Mean.

A further experiment addresses Cytochrome P450 2C9 (Homo sapiens, UniProt P11712).
In experiment [3] the target is T1, Corticotropin-releasing factor receptor 2/Corticotropin-releasing factor-binding protein. Briefly: Dose Response confirmation of uHTS hits for small molecule antagonists of the CRF-binding protein and CRF-R2 receptor complex. In kind it is functional. To be noted: read-out: IC50_Mean.
The next experiment concerns the target T2, Protein RecA (Mycobacterium tuberculosis, UniProt P9WHJ3).
T2 sequence (P9WHJ3 whole entry): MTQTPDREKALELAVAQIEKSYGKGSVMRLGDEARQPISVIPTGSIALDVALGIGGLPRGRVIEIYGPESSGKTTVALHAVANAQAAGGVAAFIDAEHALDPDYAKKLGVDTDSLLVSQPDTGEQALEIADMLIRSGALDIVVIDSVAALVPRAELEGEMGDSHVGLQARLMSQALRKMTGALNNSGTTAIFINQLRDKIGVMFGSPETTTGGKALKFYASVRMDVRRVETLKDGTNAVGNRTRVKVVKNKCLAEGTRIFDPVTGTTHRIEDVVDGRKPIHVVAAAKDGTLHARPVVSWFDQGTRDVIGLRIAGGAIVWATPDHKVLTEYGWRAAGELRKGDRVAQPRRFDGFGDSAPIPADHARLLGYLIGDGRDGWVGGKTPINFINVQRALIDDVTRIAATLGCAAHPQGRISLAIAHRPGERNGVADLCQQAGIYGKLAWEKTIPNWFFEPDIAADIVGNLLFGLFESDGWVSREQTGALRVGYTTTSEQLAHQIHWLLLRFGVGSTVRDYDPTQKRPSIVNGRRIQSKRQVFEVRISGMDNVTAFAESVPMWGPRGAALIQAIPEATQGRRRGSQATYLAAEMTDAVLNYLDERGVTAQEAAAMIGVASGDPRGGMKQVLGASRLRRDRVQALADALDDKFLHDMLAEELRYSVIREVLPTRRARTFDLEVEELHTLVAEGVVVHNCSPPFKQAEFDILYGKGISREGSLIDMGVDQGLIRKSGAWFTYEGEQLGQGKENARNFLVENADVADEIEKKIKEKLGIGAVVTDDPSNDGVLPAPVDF
Kind of experiment: Fluorescence Cell-Free Homogeneous Dose Retest to Identify Inhibitors of RecA-Intein Splicing Activity. [Related pubchem assays (depositor defined):AID2097, AID2223, AID489010, AID492950]. The format is functional.

Experiment [4] addresses T3, Rac GTPase-activating protein 1 (Homo sapiens, UniProt Q9H0H5).
T3 sequence (Q9H0H5 whole entry): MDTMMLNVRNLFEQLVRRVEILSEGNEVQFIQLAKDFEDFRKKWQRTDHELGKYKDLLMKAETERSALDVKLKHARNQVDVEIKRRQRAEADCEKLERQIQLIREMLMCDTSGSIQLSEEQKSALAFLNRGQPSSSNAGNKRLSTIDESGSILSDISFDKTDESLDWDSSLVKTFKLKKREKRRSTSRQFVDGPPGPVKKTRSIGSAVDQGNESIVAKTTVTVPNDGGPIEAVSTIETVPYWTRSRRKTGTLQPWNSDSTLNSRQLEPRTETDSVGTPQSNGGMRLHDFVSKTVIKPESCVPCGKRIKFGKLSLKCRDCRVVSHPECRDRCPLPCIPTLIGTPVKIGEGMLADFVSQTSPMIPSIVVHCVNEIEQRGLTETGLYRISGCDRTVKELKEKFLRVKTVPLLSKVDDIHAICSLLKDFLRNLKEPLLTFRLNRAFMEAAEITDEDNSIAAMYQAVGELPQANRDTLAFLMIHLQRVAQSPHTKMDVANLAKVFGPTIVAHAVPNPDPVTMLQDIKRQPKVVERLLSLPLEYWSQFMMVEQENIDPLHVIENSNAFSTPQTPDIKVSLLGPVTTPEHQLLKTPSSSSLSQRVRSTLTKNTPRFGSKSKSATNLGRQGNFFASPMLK
Kind of experiment: blockers of MgcRacGAP-driven Rac1 GTP hydrolysis – biochemical, ADP Hunter fluorescence, primary and confirmatory, confirmation (AID 624330). The format is functional.

Experiment [5] has as its target T4, Replicative DNA helicase DnaB (Mycobacterium tuberculosis, UniProt P9WMR3).
T4 sequence (P9WMR3 whole entry): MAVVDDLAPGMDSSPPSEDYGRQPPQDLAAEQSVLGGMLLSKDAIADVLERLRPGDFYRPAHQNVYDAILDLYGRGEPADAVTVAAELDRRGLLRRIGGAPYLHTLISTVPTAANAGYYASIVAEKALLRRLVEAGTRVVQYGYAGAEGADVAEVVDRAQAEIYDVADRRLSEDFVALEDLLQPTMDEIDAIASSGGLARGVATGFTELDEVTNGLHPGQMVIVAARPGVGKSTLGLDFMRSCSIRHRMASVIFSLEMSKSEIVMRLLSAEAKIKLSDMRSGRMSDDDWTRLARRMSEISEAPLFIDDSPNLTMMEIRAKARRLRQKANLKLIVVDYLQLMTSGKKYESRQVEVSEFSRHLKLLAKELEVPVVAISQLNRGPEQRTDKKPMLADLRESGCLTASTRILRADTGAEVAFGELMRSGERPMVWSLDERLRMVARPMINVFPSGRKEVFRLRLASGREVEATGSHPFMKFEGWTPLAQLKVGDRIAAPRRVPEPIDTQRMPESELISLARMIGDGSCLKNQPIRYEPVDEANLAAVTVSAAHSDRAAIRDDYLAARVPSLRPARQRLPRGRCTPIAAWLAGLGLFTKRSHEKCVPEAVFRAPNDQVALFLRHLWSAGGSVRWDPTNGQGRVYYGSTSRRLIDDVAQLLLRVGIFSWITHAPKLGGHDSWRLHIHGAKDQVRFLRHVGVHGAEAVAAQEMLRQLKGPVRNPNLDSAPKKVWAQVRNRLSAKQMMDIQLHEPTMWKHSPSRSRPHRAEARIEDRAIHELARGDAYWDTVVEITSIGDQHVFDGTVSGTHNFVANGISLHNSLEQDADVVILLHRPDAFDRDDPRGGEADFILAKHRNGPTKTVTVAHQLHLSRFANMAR
Briefly: DnaB intein splicing inhibitors, dose response, biochemical, cell-free fluorescence (AID 449749). In kind it is functional.

The target in experiment [6] is Induced myeloid leukemia cell differentiation protein Mcl-1 (Homo sapiens, UniProt Q07820). In kind it is functional.
A short description of experiment [7]: bead-based luminescence quenchers, dual-tagged ARNT – biochemical, AlphaScreen, cherry-pick, artefact control for ARNT-TACC3 interaction inhibitor project, dose response (AID 651705).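 Further: AlphaScreen bead proximity signal that flags compounds interfering with the detection technology; potency reflects signal decrease which marks the compound as an assay artifact.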 The format is functional. In general terms: In Alpha technology, singlet oxygen from a donor bead excites a nearby acceptor bead.
The target in experiment [8] is Glucose-6-phosphate 1-dehydrogenase (Homo sapiens, UniProt P11413). Briefly: inhibition of Homo sapiens G6PD, dose series – biochemical, fluorescence, selectivity assay for P. falciparum G6PD inhibitor project, dose response (AID 504792). The format is functional.
A short description of experiment [9]: viability of uninfected HEp-2 cells – cell-based, HTS, cytotoxicity control for RSV inhibitor project, dose response (AID 2410). The format is functional. The note with it: human respiratory syncytial virus.
Another experiment deals with SN12K1. Briefly: cells. In kind it is functional. The note with it: Homo sapiens.
A further experiment relates to P388/ADR. Kind of experiment: cells. In kind it is functional. The note with it: Mus musculus.
The next experiment deals with P388. Kind of experiment: cells. The format is functional. To be noted: Mus musculus.
The target of experiment [10] is T5, Small ubiquitin-related modifier 1 (Homo sapiens, UniProt P63165). Briefly: SUMO1 protein interaction blockers, potency – biochemical, fluorescence polarization, uHTS hits, dose response (AID 624382). The format is functional. To be noted: read-out: IC50_Mean. (Polarisation of emitted light reports the rotation of a fluorescent probe.)
Experiment [11] deals with T5, Small ubiquitin-related modifier 1. Kind of experiment: SUMO1 protein-protein binding blockers, potency – biochemical, FRET, dose response (AID 624383). In kind it is functional. The note with it: read-out: IC50_Mean.
For another experiment, the target named is SUMO-activating enzyme (Homo sapiens, UniProt Q9UBT2). Briefly: blockers of UBC9-mediated SUMO conjugation – biochemical, AlphaScreen, SUMOylation inhibitor project, confirmation (AID 2018). The format is functional.
A further experiment relates to INS1. Briefly: INS-1E survival protection against cytokine death – cell-based, luminescence, retest, dose response (AID 449756).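 Further: cell death triggered by IL-1 beta plus TNF-alpha plus IFN-gamma mixture; protective hits raise ATP signal compared with cytokine alone wells.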 In kind it is functional. To be noted: Rattus norvegicus.
The nature of experiment [12]: cells. In kind it is functional, cell-based.
The nature of experiment [13]: cells. The format is functional, cell-based. This is another data set of the same source.

Experimental findings from ChEMBL document CHEMBL1201862, “PubChem BioAssay data set” (2004) are described below.

The source made the active and inactive calls. Bounds are passed on as bounds.

As a reminder, the AC50 is the midpoint of the concentration-response curve, whichever way the signal moves. What is called CC50 is the concentration that lowers cell viability or growth by half. One may read the GI50 as the concentration that inhibits growth by half.

Protein Wnt-3a, sequence (P27467 whole entry): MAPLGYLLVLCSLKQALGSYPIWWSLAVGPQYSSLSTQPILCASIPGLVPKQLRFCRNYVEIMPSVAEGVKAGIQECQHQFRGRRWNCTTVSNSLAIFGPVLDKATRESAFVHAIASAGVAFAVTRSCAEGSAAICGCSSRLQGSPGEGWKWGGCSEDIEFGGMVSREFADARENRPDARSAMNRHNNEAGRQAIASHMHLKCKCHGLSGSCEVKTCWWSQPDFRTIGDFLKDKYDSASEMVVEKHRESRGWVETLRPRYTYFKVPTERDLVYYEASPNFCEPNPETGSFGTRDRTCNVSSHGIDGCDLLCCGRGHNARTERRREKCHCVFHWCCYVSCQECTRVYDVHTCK
T5 sequence (P63165 whole entry): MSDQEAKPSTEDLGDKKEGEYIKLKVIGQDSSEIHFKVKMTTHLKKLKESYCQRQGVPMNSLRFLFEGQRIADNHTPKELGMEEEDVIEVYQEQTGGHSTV
Glucose-6-phosphate 1-dehydrogenase, sequence (P11413 whole entry): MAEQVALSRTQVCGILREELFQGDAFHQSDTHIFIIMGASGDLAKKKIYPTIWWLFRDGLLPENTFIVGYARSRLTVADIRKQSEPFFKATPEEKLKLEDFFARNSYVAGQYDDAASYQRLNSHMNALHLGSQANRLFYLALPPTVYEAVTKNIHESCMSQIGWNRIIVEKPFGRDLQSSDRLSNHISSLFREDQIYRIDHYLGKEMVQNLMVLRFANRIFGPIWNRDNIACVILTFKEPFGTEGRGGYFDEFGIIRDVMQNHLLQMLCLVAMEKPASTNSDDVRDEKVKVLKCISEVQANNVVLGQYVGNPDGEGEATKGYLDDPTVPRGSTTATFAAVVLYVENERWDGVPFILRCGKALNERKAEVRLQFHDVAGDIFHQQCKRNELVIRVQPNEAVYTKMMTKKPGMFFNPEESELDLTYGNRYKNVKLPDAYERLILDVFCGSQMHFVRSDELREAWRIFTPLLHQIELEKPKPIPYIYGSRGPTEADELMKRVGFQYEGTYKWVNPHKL
Induced myeloid leukemia cell differentiation protein Mcl-1, sequence (Q07820 whole entry): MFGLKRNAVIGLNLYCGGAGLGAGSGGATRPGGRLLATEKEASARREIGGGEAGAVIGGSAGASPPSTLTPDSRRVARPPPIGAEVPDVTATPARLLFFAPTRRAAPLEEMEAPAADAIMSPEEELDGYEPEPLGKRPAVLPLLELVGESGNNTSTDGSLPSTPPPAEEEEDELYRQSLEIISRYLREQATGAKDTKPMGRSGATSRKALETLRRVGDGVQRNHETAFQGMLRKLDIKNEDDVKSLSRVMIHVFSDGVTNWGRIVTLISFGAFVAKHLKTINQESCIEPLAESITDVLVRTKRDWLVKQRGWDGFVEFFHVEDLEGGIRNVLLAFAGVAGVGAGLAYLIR
Cytochrome P450 2C9, sequence (P11712 whole entry): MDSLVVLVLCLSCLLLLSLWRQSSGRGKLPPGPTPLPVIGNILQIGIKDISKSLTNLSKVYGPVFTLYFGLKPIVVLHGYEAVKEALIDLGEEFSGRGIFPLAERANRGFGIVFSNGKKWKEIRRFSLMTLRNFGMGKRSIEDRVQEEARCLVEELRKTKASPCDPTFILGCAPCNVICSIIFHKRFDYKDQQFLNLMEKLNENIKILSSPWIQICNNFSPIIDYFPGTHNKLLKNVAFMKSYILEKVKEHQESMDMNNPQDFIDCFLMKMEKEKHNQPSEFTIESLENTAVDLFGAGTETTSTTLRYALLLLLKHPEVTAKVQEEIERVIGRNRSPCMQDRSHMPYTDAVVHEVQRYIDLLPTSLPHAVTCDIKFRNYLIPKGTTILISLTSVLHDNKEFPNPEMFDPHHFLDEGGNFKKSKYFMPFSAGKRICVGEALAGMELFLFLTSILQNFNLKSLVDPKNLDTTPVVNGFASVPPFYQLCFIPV
SUMO-activating enzyme, sequence (Q9UBE0 whole entry): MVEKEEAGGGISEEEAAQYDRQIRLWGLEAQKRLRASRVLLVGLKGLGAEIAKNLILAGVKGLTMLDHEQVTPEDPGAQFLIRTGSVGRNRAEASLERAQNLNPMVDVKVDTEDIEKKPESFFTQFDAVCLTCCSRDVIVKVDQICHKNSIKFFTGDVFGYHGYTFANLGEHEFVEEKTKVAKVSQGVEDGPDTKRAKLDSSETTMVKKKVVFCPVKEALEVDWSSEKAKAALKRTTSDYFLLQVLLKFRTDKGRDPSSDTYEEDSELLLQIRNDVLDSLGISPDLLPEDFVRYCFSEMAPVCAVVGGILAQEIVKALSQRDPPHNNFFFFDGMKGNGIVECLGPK
SUMO-activating enzyme, sequence (Q9UBT2 whole entry): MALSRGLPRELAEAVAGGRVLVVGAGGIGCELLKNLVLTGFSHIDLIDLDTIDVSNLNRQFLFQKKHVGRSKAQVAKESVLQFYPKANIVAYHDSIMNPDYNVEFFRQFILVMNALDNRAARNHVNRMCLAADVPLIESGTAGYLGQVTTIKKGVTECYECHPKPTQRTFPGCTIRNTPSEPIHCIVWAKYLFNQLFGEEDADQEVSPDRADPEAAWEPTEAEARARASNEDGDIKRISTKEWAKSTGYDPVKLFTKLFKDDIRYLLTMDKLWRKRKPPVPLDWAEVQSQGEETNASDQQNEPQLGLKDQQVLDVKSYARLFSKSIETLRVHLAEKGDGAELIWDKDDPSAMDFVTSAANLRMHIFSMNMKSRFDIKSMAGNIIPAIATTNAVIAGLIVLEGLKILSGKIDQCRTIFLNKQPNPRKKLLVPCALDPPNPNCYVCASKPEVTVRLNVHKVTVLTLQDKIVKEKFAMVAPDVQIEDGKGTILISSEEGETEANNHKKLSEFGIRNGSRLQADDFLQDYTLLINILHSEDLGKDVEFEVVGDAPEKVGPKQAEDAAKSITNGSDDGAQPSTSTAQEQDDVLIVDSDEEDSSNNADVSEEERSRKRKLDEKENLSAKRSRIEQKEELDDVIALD

With `S=C(Nc1ccccc1)N1CCC(Cc2ccccc2)CC1`, on Protein Wnt-3a, the IC50 was 18 µM (active).
For the molecule `Cc1nc(-c2c(C(F)(F)F)noc2-c2ccc(O)cc2O)cs1`, the values for the IC50 in experiment [1] and in [3] were > 20 µM (inactive) and 22.7 µM (active), respectively. In addition, in experiment [2], the EC50 was > 53 µM (inactive). Further, the AC50 at Cytochrome P450 2C9 is 3.16 µM (inconclusive).
On to `CCOC(=O)c1c(OCC)[nH]c2c1cc(O)c1ccccc12`, for which the EC50 at Protein RecA is 2.64 µM (active). The values for the IC50 in experiment [4], in experiment [6] and in [8] were 63.5 µM (active), 0.935 µM (active) and > 80 µM (inactive), respectively. In addition, the results for the AC50 in [5] and in experiment [7] were > 380 µM (inconclusive) and 93 µM (active), respectively.
As to `COc1ccccc1CCNC(=O)C(=O)NCCC1CCCCN1S(=O)(=O)c1cccs1` (configuration not stated), the CC50 in experiment [9] was 36.7 µM (active). Moreover, the IC50 on Protein Wnt-3a was 12.3 µM (active).
With `CC(C)=CC(=O)OC1C2C(C)=CC(=O)C(O)C2(C)C2C3(O)OCC24C(CC(=O)OC14)C(C)C3O` (configuration not stated), the GI50 is 0.02 µM (active) in the experiment with SN12K1, 0.102 µM (active) with P388/ADR and 0.000946 µM (active) with P388.
On to `COc1ccc(CCNC(=O)c2cc3c(=O)n4cccc(C)c4nc3s2)cc1OC`, for which the IC50 is > 66.6 µM (inactive) in [10] and 100 µM (inactive) in experiment [11].
Take `NCC(Cl)C(O)c1c[nH]c(N)n1` (configuration not stated): the GI50 was 0.507 µM (active) with SN12K1, 0.232 µM (active) with P388/ADR and 0.0353 µM (active) in the experiment with P388.
For `COC(=O)c1nc2n(n1)C(c1ccc([N+](=O)[O-])cc1)C(C(=O)Nc1ccc(Cl)cc1)=C(C)N2` (configuration not stated), the IC50 in experiment [1] was > 20 µM (inactive); on SUMO-activating enzyme, 32.4 µM (active); in experiment [3], 17.8 µM (active). In experiment [2], the EC50 is > 53 µM (inactive).
On to `COc1cc(OC)cc(C(=O)Nc2nnc(-c3cccnc3)o2)c1`, for which, in [7], the AC50 was 97.6 µM (active).
As to `CC1CCCCC1NS(=O)(=O)c1ccc(S(=O)(=O)NCc2ccncc2)cc1` (configuration not stated), the AC50 in the experiment with INS1 was 3.4 µM (active). Also, at Protein Wnt-3a, the IC50 was 1.43 µM (active).
Regarding `COc1ccc(NC(S)=NCc2cccnc2)cc1`, the IC50 in experiment [1] was 17.8 µM (active). Further, the EC50 in “cells [12]” and in “cells [13]” was > 350 µM (not active) throughout.
For `CCOc1ncccc1C(=O)OCC(=O)Nc1nnc(-c2ccccc2)o1`, the AC50 in [7] is 107 µM (active).
